17 compounds from patent US9682965B2, “Fumagillol heterocyclic compounds and methods of making and using same” (Zafgen, Inc., priority 2015, dated 2017) can be followed below.

Molecules are shown by their SMILES. Counter-ions that a name gives are not always drawn.

For the test, the system named is Diet Induced Obese (DIO) C57BL/6 mice. Description: 10 day DIO mouse model (body weight, food intake, hematology, blood chemistry). The class given is in vivo. To be noted: 240 h; DIO mouse, 0.3 mpk sc, once a day for 10 days; read-out: DIO Mouse 10-day weight loss vs vehicle. The source says:
The objective of this study design was to investigate the efficacy of disclosed compounds in a 10 day DIO mouse model. Effects on body weight, food intake, hematology and blood chemistry were the primary readouts of this study design. […] Mice were fed Research Diets D12492 (60% Kcal fat, 20% Kcal carbohydrate and 20% protein) and provided water ad libitum. DIO mice were received and housed in the facility for approximately two weeks prior to the start of test article administration. On Day −4 or −3, mice were randomized into study groups based on body weight and body weights were continued to be recorded daily for the duration of the study. Daily food intake was assessed starting on Study Day −2 by weighing of the food with hopper together to avoid loss of food in transfer.
Compounds were formulated into a 100% DMSO stock (at 9 mg/mL) prior to the start, and further diluted into the target working concentration using the vehicle of 10% DMSO in water. Prior to test article administration, starting on Day −3 a dosing acclimation occured with all animals receiving a subcutaneous injection of vehicle (10% DMSO) only for 3 days. Starting on Day 1, test compounds or vehicle were administered based on individual body weight, subcutaneously, once a day for 10 days. All mice were sacrificed on Day 11, 24 hours following the final dosing on Day 10. After sacrifice, whole blood was collected and analyzed for hematology and blood chemistry parameters.
Compounds were tested vs. vehicle at various doses (1.0, 0.5, 0.3, 0.1, 0.03 mpk sc (mg per kg animal weight delivered subcutaneously), and the results are shown in Table 2 below.

In the case of `CO[C@@H]1[C@H](OC(=O)N2CC[C@@H](CCN3CC(F)(F)C3)C2)CC[C@]2(CO2)[C@H]1[C@@]1(C)O[C@@H]1CC=C(C)C` [Example 58, (R)-((3R,4S,5S,6R)-5-methoxy-4-((2R,3R)-2-methyl-3-(3-methylbut-2-enyl)oxiran-2-yl)-1-oxaspiro[2.5]octan-6-yl) 3-(2-(3,3-difluoroazetidin-1-yl)ethyl)pyrrolidine-1-carboxylate], the inhibition in vivo at 0.3 mg/kg is 15.8%.
As to `CO[C@@H]1[C@H](OC(=O)N2CC(CCC(=O)NCCN3CCOCC3)C2)CC[C@]2(CO2)[C@H]1[C@@]1(C)O[C@@H]1CC=C(C)C` [Example 67, (3R,4S,5S,6R)-5-methoxy-4-((2R,3R)-2-methyl-3-(3-methylbut-2-enyl)oxiran-2-yl)-1-oxaspiro[2.5]octan-6-yl 3-(3-(2-morpholinoethylamino)-3-oxopropyl)azetidine-1-carboxylate], the inhibition in vivo at 0.3 mg/kg came out at 2.8%.
Then `CCN(CC)CCNC(=O)OCC1CN(C(=O)O[C@@H]2CC[C@]3(CO3)[C@@H]([C@@]3(C)O[C@@H]3CC=C(C)C)[C@@H]2OC)C1` [Example 68, (3R,4S,5S,6R)-5-methoxy-4-((2R,3R)-2-methyl-3-(3-methylbut-2-en-1-yl)oxiran-2-yl)-1-oxaspiro[2.5]octan-6-yl 3-((((2-(diethylamino)ethyl)carbamoyl)oxy)methyl)azetidine-1-carboxylate], with 0%; and `CO[C@@H]1[C@H](OC(=O)N2CC(COC(=O)N(C)C)C2)CC[C@]2(CO2)[C@H]1[C@@]1(C)O[C@@H]1CC=C(C)C` [Example 70, (3R,4S,5S,6R)-5-methoxy-4-((2R,3R)-2-methyl-3-(3-methylbut-2-enyl)oxiran-2-yl)-1-oxaspiro[2.5]octan-6-yl 3-((dimethylcarbamoyloxy)methyl)azetidine-1-carboxylate], with 14.5%.
Then `CCNC(=O)OC1CN(C(=O)O[C@@H]2CC[C@]3(CO3)[C@@H]([C@@]3(C)O[C@@H]3CC=C(C)C)[C@@H]2OC)C1` [Example 75, (3R,4S,5S,6R)-5-methoxy-4-((2R,3R)-2-methyl-3-(3-methylbut-2-enyl)oxiran-2-yl)-1-oxaspiro[2.5]octan-6-yl 3-(ethylcarbamoyloxy)azetidine-1-carboxylate], with 12.8%; and `CO[C@@H]1[C@H](OC(=O)N2CC(OC(=O)NC(C)C)C2)CC[C@]2(CO2)[C@H]1[C@@]1(C)O[C@@H]1CC=C(C)C` [Example 76, (3R,4S,5S,6R)-5-methoxy-4-((2R,3R)-2-methyl-3-(3-methylbut-2-enyl)oxiran-2-yl)-1-oxaspiro[2.5]octan-6-yl 3-(isopropylcarbamoyloxy)azetidine-1-carboxylate], with 15.4%; and `CO[C@@H]1[C@H](OC(=O)N2CC(OC(=O)N(C)C)C2)CC[C@]2(CO2)[C@H]1[C@@]1(C)O[C@@H]1CC=C(C)C` [Example 77, (3R,4S,5S,6R)-5-methoxy-4-((2R,3R)-2-methyl-3-(3-methylbut-2-enyl)oxiran-2-yl)-1-oxaspiro[2.5]octan-6-yl 3-(dimethylcarbamoyloxy)azetidine-1-carboxylate], with 16.3%.
For `CO[C@@H]1[C@H](OC(=O)N2CC(OC(=O)N3CCS(=O)(=O)CC3)C2)CC[C@]2(CO2)[C@H]1[C@@]1(C)O[C@@H]1CC=C(C)C` [Example 79, 1-(((3R,4S,5S,6R)-5-methoxy-4-((2R,3R)-2-methyl-3-(3-methylbut-2-enyl)oxiran-2-yl)-1-oxaspiro[2.5]octan-6-yloxy)carbonyl)azetidin-3-yl thiomorpholine 2,2-dioxide-4-carboxylate formate] the value was 0.1%.
In the case of `CO[C@@H]1[C@H](OC(=O)N2CC(OC(=O)NCC(C)(C)O)C2)CC[C@]2(CO2)[C@H]1[C@@]1(C)O[C@@H]1CC=C(C)C` [Example 82, (3R,4S,5S,6R)-5-methoxy-4-((2R,3R)-2-methyl-3-(3-methylbut-2-enyl)oxiran-2-yl)-1-oxaspiro[2.5]octan-6-yl 3-(2-hydroxy-2-methylpropylcarbamoyloxy)azetidine-1-carboxylate], the inhibition in vivo at 0.3 mg/kg was -0.7%.
For `COC(=O)NC1CN(C(=O)O[C@@H]2CC[C@]3(CO3)[C@@H]([C@@]3(C)O[C@@H]3CC=C(C)C)[C@@H]2OC)C1` [Example 87, (3R,4S,5S,6R)-5-methoxy-4-((2R,3R)-2-methyl-3-(3-methylbut-2-enyl)oxiran-2-yl)-1-oxaspiro[2.5]octan-6-yl 3-(methoxycarbonylamino)azetidine-1-carboxylate] the value was 10.9%.
As to `CO[C@@H]1[C@H](OC(=O)N2CC(CCC3CCN(C)CC3)C2)CC[C@]2(CO2)[C@H]1[C@@]1(C)O[C@@H]1CC=C(C)C` [Example 90, (3R,4S,5S,6R)-5-methoxy-4-((2R,3R)-2-methyl-3-(3-methylbut-2-enyl)oxiran-2-yl)-1-oxaspiro[2.5]octan-6-yl 3-(2-(1-methylpiperidin-4-yl)ethyl)azetidine-1-carboxylate formate], the inhibition in vivo at 0.3 mg/kg was determined as 13.5%.
On to `CO[C@@H]1[C@H](OC(=O)N2CC(CCC3CN(CC(F)F)C3)C2)CC[C@]2(CO2)[C@H]1[C@@]1(C)O[C@@H]1CC=C(C)C` [Example 92, (3R,4S,5S,6R)-5-methoxy-4-((2R,3R)-2-methyl-3-(3-methylbut-2-enyl)oxiran-2-yl)-1-oxaspiro[2.5]octan-6-yl 3-(2-(1-(2,2-difluoroethyl)azetidin-3-yl)ethyl)azetidine-1-carboxylate], for which the inhibition in vivo at 0.3 mg/kg is 20.7%.
For `CO[C@@H]1[C@H](OC(=O)N2CC(CC3CCN(CC(F)F)CC3)C2)CC[C@]2(CO2)[C@H]1[C@@]1(C)O[C@@H]1CC=C(C)C` [Example 94, (3R,4S,5S,6R)-5-methoxy-4-((2R,3R)-2-methyl-3-(3-methylbut-2-enyl)oxiran-2-yl)-1-oxaspiro[2.5]octan-6-yl 3-((1-(2,2-difluoroethyl)piperidin-4-yl)methyl)azetidine-1-carboxylate], the inhibition in vivo at 0.3 mg/kg worked out at 22.5%.
With `CO[C@@H]1[C@H](OC(=O)N2CC(=CCN3CCOCC3)C2)CC[C@]2(CO2)[C@H]1[C@@]1(C)O[C@@H]1CC=C(C)C` [Example 96, (3R,4S,5S,6R)-5-methoxy-4-((2R,3R)-2-methyl-3-(3-methylbut-2-enyl)oxiran-2-yl)-1-oxaspiro[2.5]octan-6-yl 3-(2-morpholinoethylidene)azetidine-1-carboxylate], the inhibition in vivo at 0.3 mg/kg amounted to 18.6%.
`CO[C@@H]1[C@H](OC(=O)N2CC(=CCN3CCN(CC(F)F)CC3)C2)CC[C@]2(CO2)[C@H]1[C@@]1(C)O[C@@H]1CC=C(C)C` [Example 97, (3R,4S,5S,6R)-5-methoxy-4-((2R,3R)-2-methyl-3-(3-methylbut-2-enyl)oxiran-2-yl)-1-oxaspiro[2.5]octan-6-yl 3-(2-(4-(2,2-difluoroethyl)piperazin-1-yl)ethylidene)azetidine-1-carboxylate]: the inhibition in vivo at 0.3 mg/kg came to 21.3%.
Turning to `CO[C@@H]1[C@H](OC(=O)N2CC(Oc3ccccn3)C2)CC[C@]2(CO2)[C@H]1[C@@]1(C)O[C@@H]1CC=C(C)C` [Example 99, (3R,4S,5S,6R)-5-methoxy-4-((2R,3R)-2-methyl-3-(3-methylbut-2-enyl)oxiran-2-yl)-1-oxaspiro[2.5]octan-6-yl 3-(pyridin-2-yloxy)azetidine-1-carboxylate], the inhibition in vivo at 0.3 mg/kg was found to be 22.9%.
For the compound `CO[C@@H]1[C@H](OC(=O)N2CC(CCC3CCN(CC(F)F)CC3)C2)CC[C@]2(CO2)[C@H]1[C@@]1(C)O[C@@H]1CCC(C)C` [Example 128, (3R,4S,5S,6R)-4-((2R,3R)-3-isopentyl-2-methyloxiran-2-yl)-5-methoxy-1-oxaspiro[2.5]octan-6-yl 3-(2-(1-(2,2-difluoroethyl)piperidin-4-yl)ethyl)azetidine-1-carboxylate], the inhibition in vivo at 0.3 mg/kg came to 15.2%.
